Data published in PubChem BioAssay (NCI).
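All cell lines were grown in 96-well plates and treated with compound for 48 hours. Definition used: TGI = concentration required for complete inhibition of growth.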 *1 amine or outer side, *2 acyl side, *3 side chain or, on linkers, in order; H or OH if unused. Where a SMILES comes first, the peptide text is derived from it. Bridges are numbered along the chain shown (N, C = ends). Roman numbers before positions name the chains, in order. [ ]: non-standard residue; d: D form. Actinocin(9to1) = Cc1c2oc3c(C)ccc(C(=O)[*:1])c3nc-2c(C(=O)[*:2])c(N)c1=O; NMeH = CN[CH](Cc1c[nH]cn1)C(=O)O; Sar = CNCC(=O)O

Key:
Assay in all cases: NCI tumour cell line growth inhibition, 48 h
[1] = system: NCI-H522 lung
[2] = system: NCI-H23 lung
[3] = system: LOX IMVI melanoma
[4] = system: SK-MEL-5 melanoma
[5] = system: HOP-92 NSCLC
[6] = system: MDA-MB-435
[7] = system: SF-539 CNS
[8] = system: SK-OV-3 ovarian
[9] = system: T-47D breast
[10] = system: SN12C renal

| SMILES | TGI [1] | TGI [2] | TGI [3] | TGI [4] | TGI [5] | TGI [6] | TGI [7] | TGI [8] | TGI [9] | TGI [10] |
| --- | --- | --- | --- | --- | --- | --- | --- | --- | --- | --- |
| CN1/C(=C/C=C/C=C/C=C2C(=O)c3ccccc3C2=O)C(C)(C)c2ccccc21 | > 100 µM | > 100 µM | > 100 µM | 36.1 µM | 58 µM | > 100 µM | 91.3 µM | > 100 µM | > 100 µM | > 100 µM |
| C#C[C@]1(O)CC[C@H]2[C@@H]3CCC4=C/C(=N/NC(=O)c5cccc6c(=O)c7ccccc7[nH]c56)CCC4[C@H]3CC[C@@]21C (stereo not given in full) | 86 µM | > 100 µM | > 100 µM | 64.8 µM | > 100 µM | > 100 µM | > 100 µM | > 100 µM | > 100 µM | > 100 µM |
| NCCCN(CCCCN(CCCN)C(=O)OCc1ccccc1)C(=O)OCc1ccccc1 | 85.4 µM | > 100 µM | > 100 µM | > 100 µM | > 100 µM | > 100 µM | > 100 µM | > 100 µM | > 100 µM | > 100 µM |
| C/C=C(\C)C(=O)OC1CC(OC(C)=O)C2(C(=O)OC)COC3C2C1(C)C1C2(C(=O)OC)OCC1(C3O)C1(O)C3CC(C4(O)C=COC4O3)C1(C)O2 (stereo not given) | > 100 µM | > 100 µM | > 100 µM | > 100 µM | > 100 µM | > 100 µM | > 100 µM | > 100 µM | > 100 µM | > 100 µM |
| Cc1cc(-n2nnc(C(=O)O)c2-c2ccccc2)c2ccc(Cl)cc2n1 | > 100 µM | > 100 µM | > 100 µM | > 100 µM | > 100 µM | > 100 µM | > 100 µM | > 100 µM | > 100 µM | > 100 µM |
| O=[N+]([O-])c1ccc(NN=C2CN3CCN(C2)c2ccccc23)c([N+](=O)[O-])c1 | > 100 µM | > 100 µM | > 100 µM | > 100 µM | > 100 µM | > 100 µM | > 100 µM | > 100 µM | > 100 µM | > 100 µM |
| C=C(C(=O)O[C@H]1C/C(C)=C/CC/C(CO)=C/[C@H]2C(=O)OC(=C)[C@H]12)C(O)CO (stereo not given in full) | 3.3 µM | 32.7 µM | 36 µM | 29.1 µM | 31.4 µM | 26.3 µM | 10.4 µM | 35.1 µM | 11.8 µM | 30.6 µM |
| CCCCc1ccc(Nc2ncc3ncn(COCCO)c3n2)cc1 | > 100 µM | > 100 µM | 39.7 µM | 49.6 µM | 92.8 µM | 87.5 µM | > 100 µM | > 100 µM | > 100 µM | > 100 µM |
| CC1C(NNC(N)=O)Oc2cc3c(cc2C1c1ccccc1O)OCO3 (stereo not given) | 58.6 µM | > 100 µM | > 100 µM | > 100 µM | 50.4 µM | 48 µM | 74 µM | > 100 µM | > 100 µM | > 100 µM |
| Cc1c2oc3c(C)ccc(C(=O)NC4C(=O)NC(C(C)C)C(=O)N5CCCC5C(=O)N(C)CC(=O)N(C)C(Cc5cnc[nH]5)C(=O)OC4C)c3nc-2c(C(=O)NC2C(=O)NC(C(C)C)C(=O)N3CCCC3C(=O)N(C)CC(=O)N(C)C(Cc3cnc[nH]3)C(=O)OC2C)c(N)c1=O (stereo not given) (I: TVP[Sar][NMeH] / II: TVP[Sar][NMeH]; ester I:1-I:C, II:1-II:C; linker I:N-II:N via Actinocin(9to1); configuration not given here) | > 100 µM | > 100 µM | > 100 µM | 55.9 µM | > 100 µM | > 100 µM | > 100 µM | > 100 µM | > 100 µM | > 100 µM |
